From US20260234112A1, “COMPOUNDS, COMPOSITIONS, AND METHODS OF USE THEREOF” (Type6 Therapeutics, Inc., priority 2023, published 2026)
pKd: −log10 of the molar value.

Target: T1, Cdk2(2-298) (Homo sapiens, UniProt P24941)
T1 construct: Biotinylated N-terminal avi-tagged Cdk2(2-298) or Cdk1(1-297) was immobilized
Assay: Surface Plasmon Resonance (SPR) compound interaction, Biacore 8K
Type: binding
Conditions: single-cycle kinetics (SCK, "S"), dissociation 1800 sec, read-out: Activity rating (KD)
In short: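 Biotinylated N-terminal avi-tagged Cdk2(2-298) captured on streptavidin chip at 2500–3000 RU in 25 mM HEPES, 150 mM NaCl, 0.05% Tween20, pH 7.5, 1% DMSO final. Eight 3-fold compound concentrations injected 120 sec at 30 μl/min, multi- or single-cycle kinetics; dissociation 180 sec (MCK) or 1800 sec (SCK).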

pKd | Compound
7.00 to 7.96 | C#Cc1ccccc1S(=O)(=O)Nc1ccc(Oc2ccncc2-c2ccnc(N[C@H]3CC[C@H](N)CC3)n2)c(F)c1 [Compound 73, N-[4-[[3-[2-(1r,4r)[(4-Aminocyclohexyl)amino]pyrimidin-4-yl]-4-pyridyl]oxy]-3-fluorophenyl] 2-ethynylbenzenesulfonamide]
7.00 to 7.96 | CN1CCC(Nc2nccc(-c3cnccc3Oc3ccc(NS(=O)(=O)c4ccccc4Cl)cc3F)n2)CC1 [Compound 77, N-[3-Fluoro-4-[[3-[2-[[N-methylpiperid-4-yl]amino]pyrimidin-4-yl]-4-pyridyl]oxy]phenyl] 2-chlorobenzenesulfonamide]
7.00 to 7.96 | CN(C)[C@H]1CC[C@H](Nc2nccc(-c3cnccc3Oc3ccc(NS(=O)(=O)c4ccccc4Cl)cc3F)n2)CC1 [Compound 78, N-[4-[[3-[2-[(1r,4r)(4-(N,N-Dimethylamino)cyclohexyl)amino]pyrimidin-4-yl]-4-pyridyl]oxy]-3-fluorophenyl] 2-chlorobenzenesulfonamide]
≥ 8.00 | N[C@H]1CC[C@H](Nc2nccc(-c3cnccc3Oc3ccc(NS(=O)(=O)c4ccccc4Cl)c(F)c3)n2)CC1 [Compound 79, N-[4-[[3-[2-[(1r,4r)(4-Aminocyclohexyl)amino]pyrimidin-4-yl]-4-pyridyl]oxy]-2-fluorophenyl] 2-chlorobenzenesulfonamide]
6.00 to 7.00 | N[C@H]1CC[C@H](Nc2nccc(-c3cnccc3Oc3ccc(NS(=O)(=O)c4ccc(CO)cc4F)cc3F)n2)CC1 [Compound 81]
6.00 to 7.00 | N[C@H]1CC[C@H](Nc2nccc(-c3cnccc3Oc3ccc(NS(=O)(=O)c4ccc(CCO)cc4F)cc3F)n2)CC1 [Compound 83, N-[4-[[3-[2-(1r,4r)[(4-Aminocyclohexyl)amino]pyrimidin-4-yl]-4-pyridyl]oxy]-3-fluorophenyl] 2-fluoro-4-(2-hydroxyethyl)benzenesulfonamide]
≥ 8.00 | O=S(=O)(Nc1ccc(Oc2ccncc2-c2ccnc(NC3COC3)n2)c(F)c1)c1ccccc1Cl [Compound 88]
7.00 to 7.96 | O=S(=O)(Nc1ccc(Oc2ccncc2-c2ccnc(NC3COC3)n2)c(F)c1)c1ccccc1Cl [Compound 89]
≥ 8.00 | O=S(=O)(Nc1ccc(Oc2ccncc2-c2ccnc(NC3CC4(CNC4)C3)n2)c(F)c1)c1ccccc1Cl [Compound 92]
6.00 to 7.00 | CN1CC[C@H](Nc2nccc(-c3cnccc3Oc3ccc(NS(=O)(=O)c4ccccc4Cl)cc3F)n2)C1 [Compound 93]
7.00 to 7.96 | O=S(=O)(Nc1ccc(Oc2ccncc2-c2ccnc(NC3CNC3)n2)c(F)c1)c1ccccc1Cl [Compound 98]
6.00 to 7.00 | CN1CC2(CC(Nc3nccc(-c4cnccc4Oc4ccc(NS(=O)(=O)c5ccccc5Cl)cc4F)n3)C2)C1 [Compound 99]
7.00 to 7.96 | O=S(=O)(Nc1ccc(Oc2ccncc2-c2ccnc(NC3CN(C4COC4)C3)n2)c(F)c1)c1ccccc1Cl [Compound 101]
7.00 to 7.96 | CN1CC(Nc2nccc(-c3cnccc3Oc3ccc(NS(=O)(=O)c4ccccc4Cl)cc3F)n2)C1 [Compound 102]
6.00 to 7.00 | O=S(=O)(Nc1ccc(Oc2ccncc2-c2ccnc(NC3CN(CCO)C3)n2)c(F)c1)c1ccccc1Cl [Compound 106]
≥ 8.00 | N[C@H]1CC[C@H](Nc2nccc(-c3cccnc3Sc3ccc(NS(=O)(=O)c4ccccc4Cl)cc3F)n2)CC1 [Compound 108, N-(4-((3-(2-(((1r,4r)-4-Aminocyclohexyl)amino)pyrimidin-4-yl)pyridin-2-yl)thio)-3-fluorophenyl) 2-chlorobenzenesulfonamide]
≥ 8.00 | O=S(=O)(Nc1ccc(Sc2ncccc2-c2ccnc(N[C@H]3CCCNC3)n2)c(F)c1)c1ccccc1Cl [Compound 109, N-[3-Fluoro-4-[[3-[2-[[(3S)-3-piperidyl]amino]pyrimidin-4-yl]-2-pyridyl]thio]phenyl] 2-chlorobenzenesulfonamide]
7.00 to 7.96 | N[C@H]1CC[C@H](Nc2nccc(-c3cccnc3Sc3ccc(NS(=O)(=O)c4ccccc4)cc3F)n2)CC1 [Compound 110, N-(4-((3-(2-(((1r,4r)-4-Aminocyclohexyl)amino)pyrimidin-4-yl)pyridin-2-yl)thio)-3-fluorophenyl) benzenesulfonamide]
7.00 to 7.96 | N[C@H]1CC[C@H](Nc2nccc(-c3cccnc3Sc3ccc(NS(=O)(=O)c4cccc5ccccc45)cc3F)n2)CC1 [Compound 111, N-(4-((3-(2-(((1r,4r)-4-Aminocyclohexyl)amino)pyrimidin-4-yl)pyridin-2-yl)thio)-3-fluorophenyl) naphthalene-1-sulfonamide]
≥ 8.00 | N[C@H]1CC[C@H](Nc2nccc(-c3cnccc3Sc3ccc(NS(=O)(=O)c4ccccc4Cl)cc3F)n2)CC1 [Compound 116, N-[4-[[3-[2-[((1r,4r)4 aminocyclohexyl)amino]pyrimidin-4-yl]-4-pyridyl]thio]-3-fluoro-phenyl] 2-chlorobenzenesulfonamide]
7.00 to 7.96 | N[C@H]1CC[C@H](Nc2nccc(-c3cnccc3Sc3ccc(NS(=O)(=O)c4ccccc4)cc3F)n2)CC1 [Compound 117, N-[4-(1r,4r)[[3-[2-[(4-aminocyclohexyl)amino]pyrimidin-4-yl]-4-pyridyl]sulfanyl]-3-fluorophenyl] benzenesulfonamide]
6.00 to 7.00 | N[C@H]1CC[C@H](Nc2nccc(-c3cnccc3Sc3ccc(NS(=O)(=O)c4cccc5ccccc45)cc3F)n2)CC1 [Compound 118, N-[4-(1r,4r)[[3-[2-[(4-Aminocyclohexyl)amino]pyrimidin-4-yl]-4-pyridyl]sulfanyl]-3-fluorophenyl]naphthalene-1-sulfonamide]

Second part, the compound before the results:

Compound | pKd
N[C@H]1CC[C@H](Nc2nccc(-c3cnccc3Oc3ccc(NS(=O)(=O)C45CC6CC(CC(C6)C4)C5)cc3F)n2)CC1 [Compound 74, N-[4-[[3-[2-(1r,4r)[(4-Aminocyclohexyl)amino]pyrimidin-4-yl]-4-pyridyl]oxy]-3-fluorophenyl] adamant-1-ylsulfonamide] | < 5.30
N[C@H]1CC[C@H](Nc2nccc(-c3cnccc3Oc3ccc(NS(=O)(=O)C4CC5CCC4C5)cc3F)n2)CC1 (stereo partly drawn) [Compound 75, N-[4-[[3-[2-(1r,4r)[(4-Aminocyclohexyl)amino]pyrimidin-4-yl]-4-pyridyl]oxy]-3-fluorophenyl] [R,S]-exo-norborn-2-ylsulfonamide] | 6.00 to 7.00
CN(C)[C@H]1CC[C@H](Nc2nccc(-c3cnccc3Oc3ccc(NC(=O)c4ccccc4Cl)cc3F)n2)CC1 [Compound 76, N-[4-[[3-[2-[(1r,4r)(4-(N,N-Dimethylamino)cyclohexyl)amino]pyrimidin-4-yl]-4-pyridyl]oxy]-3-fluorophenyl] 2-chlorobenzamide] | 6.00 to 7.00
N[C@H]1CC[C@H](Nc2nccc(-c3cnccc3Oc3ccc(NS(=O)(=O)c4ccc(CO)cc4F)c(F)c3)n2)CC1 [Compound 82, N-82[4-[[3-[2-(1r,4r)[(4-Aminocyclohexyl)amino]pyrimidin-4-yl]-4-pyridyl]oxy]-2-fluorophenyl] 2-fluoro-4-(hydroxymethyl)benzenesulfonamide] | 6.00 to 7.00
N[C@H]1CC[C@H](Nc2nccc(-c3cnccc3Oc3ccc(NS(=O)(=O)c4ccc(CCO)cc4F)c(F)c3)n2)CC1 [Compound 84, N-[4-[[3-[2-(1r,4r)[(4-Aminocyclohexyl)amino]pyrimidin-4-yl]-4-pyridyl]oxy]-2-fluorophenyl] 2-fluoro-4-(2-hydroxyethyl)benzenesulfonamide] | 6.00 to 7.00
CN(C)CCNc1nccc(-c2cnccc2Oc2ccc(NS(=O)(=O)c3ccccc3Cl)cc2F)n1 [Compound 85] | 6.00 to 7.00
O=S(=O)(Nc1ccc(Oc2ccncc2-c2ccnc(NCCN3CCOCC3)n2)c(F)c1)c1ccccc1Cl [Compound 86] | 6.00 to 7.00
O=S(=O)(Nc1ccc(Oc2ccncc2-c2ccnc(NCCOCCO)n2)c(F)c1)c1ccccc1Cl [Compound 87] | 6.00 to 7.00
O=S(=O)(Nc1ccc(Oc2ccncc2-c2ccnc(NCCN3CCCC3)n2)c(F)c1)c1ccccc1Cl [Compound 90] | 6.00 to 7.00
COCCOCCNc1nccc(-c2cnccc2Oc2ccc(NS(=O)(=O)c3ccccc3Cl)cc2F)n1 [Compound 91] | 6.00 to 7.00
O=S(=O)(Nc1ccc(Oc2ccncc2-c2ccnc(NCCN3CCC3)n2)c(F)c1)c1ccccc1Cl [Compound 94] | 6.00 to 7.00
O=S(=O)(Nc1ccc(Oc2ccncc2-c2ccnc(NCCn3ccnc3)n2)c(F)c1)c1ccccc1Cl [Compound 95] | 7.00 to 7.96
O=S(=O)(Nc1ccc(Oc2ccncc2-c2ccnc(NCCc3ncc[nH]3)n2)c(F)c1)c1ccccc1Cl [Compound 96] | 6.00 to 7.00
O=S(=O)(Nc1ccc(Oc2ccncc2-c2ccnc(NCCNCCO)n2)c(F)c1)c1ccccc1Cl [Compound 97] | 6.00 to 7.00
CN(CCNc1nccc(-c2cnccc2Oc2ccc(NS(=O)(=O)c3ccccc3Cl)cc2F)n1)S(C)(=O)=O [Compound 100] | ≥ 8.00
CS(=O)(=O)N1CCC[C@H](Nc2nccc(-c3cnccc3Oc3ccc(NS(=O)(=O)c4ccccc4Cl)cc3F)n2)C1 [Compound 103] | 6.00 to 7.00
COCCNCCNc1nccc(-c2cnccc2Oc2ccc(NS(=O)(=O)c3ccccc3Cl)cc2F)n1 [Compound 104] | 6.00 to 7.00
COCCN1CC(Nc2nccc(-c3cnccc3Oc3ccc(NS(=O)(=O)c4ccccc4Cl)cc3F)n2)C1 [Compound 105] | 7.00 to 7.96
COCCOCCN1CC(Nc2nccc(-c3cnccc3Oc3ccc(NS(=O)(=O)c4ccccc4Cl)cc3F)n2)C1 [Compound 107] | 6.00 to 7.00
O=S(=O)(Nc1ccc(Sc2ncccc2-c2ccnc(N[C@H]3CCCNC3)n2)c(F)c1)c1cccc2ccccc12 [Compound 113, N-[3-fluoro-4-[[3-[2-[[(3S)-3-piperidyl]amino]pyrimidin-4-yl]-2-pyridyl]sulfanyl]phenyl] naphthalene-1-sulfonamide] | 6.00 to 7.00
O=S(=O)(Nc1ccc(Oc2ncncc2-c2ccnc(N[C@H]3CCCNC3)n2)c(F)c1)c1ccccc1Cl [Compound 127, N-[3-fluoro-4-[5-[2-[[(3S)-3-piperidyl]amino]pyrimidin-4-yl]pyrimidin-4-yl]oxyphenyl] 2-chlorobenzenesulfonamide] | 7.00 to 7.96
